Test results from PubChem BioAssay (NCI).
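Cultured in 96-well plates, cells were exposed to test compound for 48 hours across five concentrations. Definition used: TGI = concentration required for complete inhibition of growth.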

Experiments:
Test in all cases: DTP human tumour cell line panel, 48 h
MDA-MB-435 = system: MDA-MB-435
SK-MEL-2 melanoma = system: SK-MEL-2 melanoma
SW-620 colon = system: SW-620 colon
HT29 colon = system: HT29 colon
K-562 leukemia = system: K-562 leukemia
MDA-MB-231 breast = system: MDA-MB-231 breast
CAKI-1 renal = system: CAKI-1 renal
SN12C renal = system: SN12C renal
TK-10 renal = system: TK-10 renal
DU-145 prostate = system: DU-145 prostate
NCI-H522 lung = system: NCI-H522 lung
MALME-3M melanoma = system: MALME-3M melanoma
SF-539 CNS = system: SF-539 CNS
HS 578T breast = system: HS 578T breast
IGROV1 ovarian = system: IGROV1 ovarian
SNB-19 CNS = system: SNB-19 CNS
SK-MEL-28 melanoma = system: SK-MEL-28 melanoma
UACC-62 melanoma = system: UACC-62 melanoma
NCI-H23 lung = system: NCI-H23 lung
SK-MEL-5 melanoma = system: SK-MEL-5 melanoma
BT-549 breast = system: BT-549 breast
RXF 393 renal = system: RXF 393 renal
OVCAR-3 ovarian = system: OVCAR-3 ovarian
PC-3 prostate = system: PC-3 prostate
HCT-15 colon = system: HCT-15 colon
RPMI-8226 leukemia = system: RPMI-8226 leukemia
M14 melanoma = system: M14 melanoma
UO-31 renal = system: UO-31 renal
UACC-257 melanoma = system: UACC-257 melanoma
A549 NSCLC = system: A549 NSCLC
HOP-92 NSCLC = system: HOP-92 NSCLC
OVCAR-4 ovarian = system: OVCAR-4 ovarian
NCI/ADR-RES ovarian = system: NCI/ADR-RES ovarian
U251 CNS = system: U251 CNS
MDA-N = system: MDA-N
OVCAR-8 ovarian = system: OVCAR-8 ovarian
KM12 colon = system: KM12 colon
OVCAR-5 ovarian = system: OVCAR-5 ovarian
A498 renal = system: A498 renal
ACHN renal = system: ACHN renal
786-0 renal = system: 786-0 renal
COLO 205 colon = system: COLO 205 colon
MCF7 breast = system: MCF7 breast
SK-OV-3 ovarian = system: SK-OV-3 ovarian
SF-295 CNS = system: SF-295 CNS
SR leukemia = system: SR leukemia
LOX IMVI melanoma = system: LOX IMVI melanoma
T-47D breast = system: T-47D breast
HCT-116 colon = system: HCT-116 colon
HL-60(TB) leukemia = system: HL-60(TB) leukemia
CCRF-CEM leukemia = system: CCRF-CEM leukemia
MOLT-4 leukemia = system: MOLT-4 leukemia
NCI-H226 lung = system: NCI-H226 lung
NCI-H460 lung = system: NCI-H460 lung
SF-268 CNS = system: SF-268 CNS
EKVX NSCLC = system: EKVX NSCLC
HCC-2998 colon = system: HCC-2998 colon
SNB-75 CNS = system: SNB-75 CNS
HOP-62 NSCLC = system: HOP-62 NSCLC

`O=C1/C(=C/c2ccccc2)CCC/C1=C\c1ccc(O)c(CN2CCCCC2)c1` was tested, and the TGI (MDA-MB-435) was 7.5 µM, the TGI (SK-MEL-2 melanoma) was 29.2 µM and the TGI (SW-620 colon) was 5.94 µM. For the same compound, the TGI (HT29 colon) was 4.04 µM, the TGI (K-562 leukemia) was greater than 100 µM and the TGI (MDA-MB-231 breast) was 6.28 µM. For the same compound, the TGI (CAKI-1 renal) was 18.8 µM, the TGI (SN12C renal) was 9.53 µM and the TGI (TK-10 renal) was 31 µM. For the same compound, the TGI (DU-145 prostate) was 7.44 µM, the TGI (NCI-H522 lung) was 7.22 µM and the TGI (MALME-3M melanoma) was 40.2 µM. For the same compound, the TGI (SF-539 CNS) was 8.95 µM, the TGI (HS 578T breast) was 15.1 µM and the TGI (IGROV1 ovarian) was 11.2 µM. It also gave a TGI (SNB-19 CNS) of 26 µM, a TGI (SK-MEL-28 melanoma) of 17.5 µM and a TGI (UACC-62 melanoma) of 10.5 µM. The TGI (NCI-H23 lung) was 15.1 µM, the TGI (SK-MEL-5 melanoma) was 9.62 µM and the TGI (BT-549 breast) was 10.5 µM. The TGI (RXF 393 renal) was 26.7 µM, the TGI (OVCAR-3 ovarian) was 22.9 µM and the TGI (PC-3 prostate) was 13.8 µM. For the same compound, the TGI (HCT-15 colon) was 3.74 µM, the TGI (RPMI-8226 leukemia) was greater than 100 µM and the TGI (M14 melanoma) was 26.1 µM. The TGI (UO-31 renal) was 19.7 µM, the TGI (UACC-257 melanoma) was 18.5 µM and the TGI (A549 NSCLC) was 36.4 µM. It also gave a TGI (HOP-92 NSCLC) of 15.4 µM, a TGI (OVCAR-4 ovarian) of 13.8 µM and a TGI (NCI/ADR-RES ovarian) of 8.44 µM. The TGI (U251 CNS) was 11 µM, the TGI (MDA-N) was 8.11 µM and the TGI (OVCAR-8 ovarian) was 9.54 µM. It also gave a TGI (KM12 colon) of 4.98 µM, a TGI (OVCAR-5 ovarian) of 37.9 µM and a TGI (A498 renal) of 12.5 µM. The TGI (ACHN renal) was 3.8 µM, the TGI (786-0 renal) was 3.4 µM and the TGI (COLO 205 colon) was 15.4 µM. It also gave a TGI (MCF7 breast) of 19.2 µM, a TGI (SK-OV-3 ovarian) of 22.2 µM and a TGI (SF-295 CNS) of 13 µM. For the same compound, the TGI (SR leukemia) was 6.38 µM, the TGI (LOX IMVI melanoma) was 4.08 µM and the TGI (T-47D breast) was 17.6 µM. It also gave a TGI (HCT-116 colon) of 2.97 µM, a TGI (HL-60(TB) leukemia) greater than 100 µM and a TGI (CCRF-CEM leukemia) greater than 100 µM. For the same compound, the TGI (MOLT-4 leukemia) was 8.21 µM, the TGI (NCI-H226 lung) was 16.9 µM and the TGI (NCI-H460 lung) was 16.5 µM. The TGI (SF-268 CNS) was 17 µM, the TGI (EKVX NSCLC) was 18.1 µM and the TGI (HCC-2998 colon) was 5.46 µM. The TGI (SNB-75 CNS) was 17.1 µM and the TGI (HOP-62 NSCLC) was 32 µM.

With `NC(=O)NC(=O)c1cccc(NC(=O)CF)c1` the TGI (MDA-MB-435) was greater than 100 µM, the TGI (SK-MEL-2 melanoma) was greater than 100 µM and the TGI (SW-620 colon) was greater than 100 µM. The TGI (HT29 colon) was greater than 100 µM, the TGI (K-562 leukemia) was greater than 100 µM and the TGI (MDA-MB-231 breast) was greater than 100 µM. It also gave a TGI (CAKI-1 renal) greater than 100 µM, a TGI (SN12C renal) greater than 100 µM and a TGI (TK-10 renal) greater than 100 µM. It also gave a TGI (DU-145 prostate) greater than 100 µM, a TGI (NCI-H522 lung) greater than 100 µM and a TGI (MALME-3M melanoma) greater than 100 µM. The TGI (SF-539 CNS) was greater than 100 µM, the TGI (HS 578T breast) was greater than 100 µM and the TGI (IGROV1 ovarian) was greater than 100 µM. The TGI (SNB-19 CNS) was greater than 100 µM, the TGI (SK-MEL-28 melanoma) was greater than 100 µM and the TGI (UACC-62 melanoma) was greater than 100 µM. It also gave a TGI (NCI-H23 lung) greater than 100 µM, a TGI (SK-MEL-5 melanoma) greater than 100 µM and a TGI (BT-549 breast) greater than 100 µM. For the same compound, the TGI (RXF 393 renal) was greater than 100 µM, the TGI (OVCAR-3 ovarian) was greater than 100 µM and the TGI (PC-3 prostate) was greater than 100 µM. It also gave a TGI (HCT-15 colon) greater than 100 µM, a TGI (RPMI-8226 leukemia) greater than 100 µM and a TGI (M14 melanoma) greater than 100 µM. It also gave a TGI (UO-31 renal) of 80.6 µM, a TGI (UACC-257 melanoma) greater than 100 µM and a TGI (A549 NSCLC) greater than 100 µM. It also gave a TGI (HOP-92 NSCLC) greater than 100 µM, a TGI (OVCAR-4 ovarian) greater than 100 µM and a TGI (NCI/ADR-RES ovarian) greater than 100 µM. The TGI (U251 CNS) was greater than 100 µM, the TGI (MDA-N) was greater than 100 µM and the TGI (OVCAR-8 ovarian) was greater than 100 µM. It also gave a TGI (KM12 colon) greater than 100 µM, a TGI (OVCAR-5 ovarian) greater than 100 µM and a TGI (A498 renal) greater than 100 µM. For the same compound, the TGI (ACHN renal) was greater than 100 µM, the TGI (786-0 renal) was greater than 100 µM and the TGI (COLO 205 colon) was greater than 100 µM. It also gave a TGI (MCF7 breast) greater than 100 µM, a TGI (SK-OV-3 ovarian) greater than 100 µM and a TGI (SF-295 CNS) greater than 100 µM. The TGI (SR leukemia) was greater than 100 µM, the TGI (LOX IMVI melanoma) was greater than 100 µM and the TGI (T-47D breast) was greater than 100 µM. It also gave a TGI (HCT-116 colon) greater than 100 µM, a TGI (HL-60(TB) leukemia) greater than 100 µM and a TGI (CCRF-CEM leukemia) greater than 100 µM. The TGI (MOLT-4 leukemia) was greater than 100 µM, the TGI (NCI-H226 lung) was greater than 100 µM and the TGI (NCI-H460 lung) was greater than 100 µM. For the same compound, the TGI (SF-268 CNS) was greater than 100 µM, the TGI (EKVX NSCLC) was greater than 100 µM and the TGI (HCC-2998 colon) was greater than 100 µM. For the same compound, the TGI (SNB-75 CNS) was greater than 100 µM and the TGI (HOP-62 NSCLC) was greater than 100 µM.

`CCOc1cc2c(cc1OC(C)=O)C(=O)CC[C@H]1C3CC[C@H](OC(C)=O)[C@@]3(C)CC[C@H]21` (stereo not given in full) was tested, and the TGI (MDA-MB-435) was greater than 100 µM, the TGI (SK-MEL-2 melanoma) was greater than 100 µM and the TGI (SW-620 colon) was greater than 100 µM. It also gave a TGI (HT29 colon) greater than 100 µM, a TGI (K-562 leukemia) greater than 100 µM and a TGI (MDA-MB-231 breast) greater than 100 µM. It also gave a TGI (CAKI-1 renal) greater than 100 µM, a TGI (TK-10 renal) greater than 100 µM and a TGI (DU-145 prostate) greater than 100 µM. The TGI (NCI-H522 lung) was greater than 100 µM, the TGI (MALME-3M melanoma) was greater than 100 µM and the TGI (SF-539 CNS) was greater than 100 µM. For the same compound, the TGI (HS 578T breast) was greater than 100 µM, the TGI (SNB-19 CNS) was greater than 100 µM and the TGI (SK-MEL-28 melanoma) was greater than 100 µM. For the same compound, the TGI (UACC-62 melanoma) was greater than 100 µM, the TGI (NCI-H23 lung) was greater than 100 µM and the TGI (SK-MEL-5 melanoma) was greater than 100 µM. It also gave a TGI (BT-549 breast) greater than 100 µM, a TGI (RXF 393 renal) greater than 100 µM and a TGI (OVCAR-3 ovarian) greater than 100 µM. For the same compound, the TGI (PC-3 prostate) was greater than 100 µM, the TGI (HCT-15 colon) was greater than 100 µM and the TGI (RPMI-8226 leukemia) was greater than 100 µM. It also gave a TGI (M14 melanoma) greater than 100 µM, a TGI (UO-31 renal) greater than 100 µM and a TGI (UACC-257 melanoma) greater than 100 µM. It also gave a TGI (A549 NSCLC) greater than 100 µM, a TGI (HOP-92 NSCLC) greater than 100 µM and a TGI (OVCAR-4 ovarian) greater than 100 µM. The TGI (NCI/ADR-RES ovarian) was greater than 100 µM, the TGI (U251 CNS) was greater than 100 µM and the TGI (MDA-N) was greater than 100 µM. The TGI (OVCAR-8 ovarian) was greater than 100 µM, the TGI (KM12 colon) was greater than 100 µM and the TGI (OVCAR-5 ovarian) was greater than 100 µM. The TGI (A498 renal) was greater than 100 µM, the TGI (ACHN renal) was greater than 100 µM and the TGI (786-0 renal) was greater than 100 µM. For the same compound, the TGI (COLO 205 colon) was greater than 100 µM, the TGI (MCF7 breast) was greater than 100 µM and the TGI (SK-OV-3 ovarian) was greater than 100 µM. For the same compound, the TGI (SF-295 CNS) was greater than 100 µM, the TGI (SR leukemia) was greater than 100 µM and the TGI (LOX IMVI melanoma) was greater than 100 µM. The TGI (T-47D breast) was greater than 100 µM, the TGI (HCT-116 colon) was greater than 100 µM and the TGI (HL-60(TB) leukemia) was greater than 100 µM. For the same compound, the TGI (CCRF-CEM leukemia) was greater than 100 µM, the TGI (MOLT-4 leukemia) was greater than 100 µM and the TGI (NCI-H226 lung) was greater than 100 µM. The TGI (NCI-H460 lung) was greater than 100 µM, the TGI (SF-268 CNS) was greater than 100 µM and the TGI (EKVX NSCLC) was greater than 100 µM. It also gave a TGI (HCC-2998 colon) greater than 100 µM, a TGI (SNB-75 CNS) greater than 100 µM and a TGI (HOP-62 NSCLC) greater than 100 µM.
